Assay results as given in the supplement of paper PMC10307832.

Assays:
Assay in all cases: relative viability (nuclei count vs DMSO), 5 days (fraction); higher = more cells survive
Dovitinib + Dasatinib = compound: CN1CCN(c2ccc3nc(-c4c(N)c5c(F)cccc5[nH]c4=O)[nH]c3c2)CC1 [Dovitinib] + Cc1nc(Nc2ncc(C(=O)Nc3c(C)cccc3Cl)s2)cc(N2CCN(CCO)CC2)n1 [Dasatinib] (partner 0.075 µM)
How it was run: (§1)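 After 5 days of treatment, lung cancer cells in 1536-well plates were fixed and stained in a single step (final 0.05% Triton X-100, 1% formaldehyde, 1 ug/ml Hoechst) and their nuclei counted on 4× images. Treatment had been applied by pin tool the day after seeding as one drug alone or as a fixed anchor-drug dose with five library-drug doses (not always all listed) in √10 steps. Relative viability is the nuclei count of treated wells divided by that of vehicle wells, and values are medians of duplicate plates.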

Dovitinib + Alpelisib = compound: CN1CCN(c2ccc3nc(-c4c(N)c5c(F)cccc5[nH]c4=O)[nH]c3c2)CC1 [Dovitinib] + Cc1nc(NC(=O)N2CCC[C@H]2C(N)=O)sc1-c1ccnc(C(C)(C)C(F)(F)F)c1 [Alpelisib] (partner 2 µM)
How it was run: as §1

Dovitinib + Bortezomib = compound: CN1CCN(c2ccc3nc(-c4c(N)c5c(F)cccc5[nH]c4=O)[nH]c3c2)CC1 [Dovitinib] + CC(C)C[C@H](NC(=O)[C@H](Cc1ccccc1)NC(=O)c1cnccn1)B(O)O [Bortezomib] (partner 0.002 µM)
How it was run: as §1

Dovitinib + Palbociclib = compound: CN1CCN(c2ccc3nc(-c4c(N)c5c(F)cccc5[nH]c4=O)[nH]c3c2)CC1 [Dovitinib] + CC(=O)c1c(C)c2cnc(Nc3ccc(N4CCNCC4)cn3)nc2n(C2CCCC2)c1=O [Palbociclib] (partner 0.5 µM)
How it was run: as §1

BEN
relative viability (Dovitinib + Dasatinib; first compound 0.02 µM): 0.32
relative viability (Dovitinib + Dasatinib; first compound 0.06325 µM): 0.272
relative viability (Dovitinib + Dasatinib; first compound 0.2 µM): 0.321
relative viability (Dovitinib + Dasatinib; first compound 0.6325 µM): 0.326
relative viability (Dovitinib + Dasatinib; first compound 2 µM): 0.307
relative viability (Dovitinib + Alpelisib; first compound 0.02 µM): 0.981
relative viability (Dovitinib + Alpelisib; first compound 0.06325 µM): 0.828
relative viability (Dovitinib + Alpelisib; first compound 0.2 µM): 0.988
relative viability (Dovitinib + Alpelisib; first compound 0.6325 µM): 0.954
relative viability (Dovitinib + Alpelisib; first compound 2 µM): 0.936
relative viability (Dovitinib + Bortezomib; first compound 0.02 µM): 0.705
relative viability (Dovitinib + Bortezomib; first compound 0.06325 µM): 0.991
relative viability (Dovitinib + Bortezomib; first compound 0.2 µM): 0.948
relative viability (Dovitinib + Bortezomib; first compound 0.6325 µM): 1.12
relative viability (Dovitinib + Bortezomib; first compound 2 µM): 0.679
relative viability (Dovitinib + Palbociclib; first compound 0.02 µM): 0.477
relative viability (Dovitinib + Palbociclib; first compound 0.06325 µM): 0.46
relative viability (Dovitinib + Palbociclib; first compound 0.2 µM): 0.456
relative viability (Dovitinib + Palbociclib; first compound 0.6325 µM): 0.478
relative viability (Dovitinib + Palbociclib; first compound 2 µM): 0.492

COR-L 105
relative viability (Dovitinib + Dasatinib; first compound 0.02 µM): 0.34
relative viability (Dovitinib + Dasatinib; first compound 0.06325 µM): 0.34
relative viability (Dovitinib + Dasatinib; first compound 0.2 µM): 0.332
relative viability (Dovitinib + Dasatinib; first compound 0.6325 µM): 0.439
relative viability (Dovitinib + Dasatinib; first compound 2 µM): 0.393
relative viability (Dovitinib + Alpelisib; first compound 0.02 µM): 0.938
relative viability (Dovitinib + Alpelisib; first compound 0.06325 µM): 0.986
relative viability (Dovitinib + Alpelisib; first compound 0.2 µM): 1.01
relative viability (Dovitinib + Alpelisib; first compound 0.6325 µM): 0.84
relative viability (Dovitinib + Alpelisib; first compound 2 µM): 0.958
relative viability (Dovitinib + Bortezomib; first compound 0.02 µM): 0.779
relative viability (Dovitinib + Bortezomib; first compound 0.06325 µM): 0.666
relative viability (Dovitinib + Bortezomib; first compound 0.2 µM): 0.86
relative viability (Dovitinib + Bortezomib; first compound 0.6325 µM): 0.84
relative viability (Dovitinib + Bortezomib; first compound 2 µM): 0.965
relative viability (Dovitinib + Palbociclib; first compound 0.02 µM): 0.434
relative viability (Dovitinib + Palbociclib; first compound 0.06325 µM): 0.421
relative viability (Dovitinib + Palbociclib; first compound 0.2 µM): 0.46
relative viability (Dovitinib + Palbociclib; first compound 0.6325 µM): 0.419
relative viability (Dovitinib + Palbociclib; first compound 2 µM): 0.427

ABC-1
relative viability (Dovitinib + Dasatinib; first compound 0.02 µM): 0.479
relative viability (Dovitinib + Dasatinib; first compound 0.06325 µM): 0.55
relative viability (Dovitinib + Dasatinib; first compound 0.2 µM): 0.474
relative viability (Dovitinib + Dasatinib; first compound 0.6325 µM): 0.618
relative viability (Dovitinib + Dasatinib; first compound 2 µM): 0.61
relative viability (Dovitinib + Alpelisib; first compound 0.02 µM): 0.994
relative viability (Dovitinib + Alpelisib; first compound 0.06325 µM): 0.947
relative viability (Dovitinib + Alpelisib; first compound 0.2 µM): 0.967
relative viability (Dovitinib + Alpelisib; first compound 0.6325 µM): 0.564
relative viability (Dovitinib + Alpelisib; first compound 2 µM): 0.823
relative viability (Dovitinib + Bortezomib; first compound 0.02 µM): 0.262
relative viability (Dovitinib + Bortezomib; first compound 0.06325 µM): 0.34
relative viability (Dovitinib + Bortezomib; first compound 0.2 µM): 0.306
relative viability (Dovitinib + Bortezomib; first compound 0.6325 µM): 0.323
relative viability (Dovitinib + Bortezomib; first compound 2 µM): 0.315
relative viability (Dovitinib + Palbociclib; first compound 0.02 µM): 0.513
relative viability (Dovitinib + Palbociclib; first compound 0.06325 µM): 0.797
relative viability (Dovitinib + Palbociclib; first compound 0.2 µM): 0.833
relative viability (Dovitinib + Palbociclib; first compound 0.6325 µM): 0.627
relative viability (Dovitinib + Palbociclib; first compound 2 µM): 0.725

HCC-15
relative viability (Dovitinib + Dasatinib; first compound 0.02 µM): 0.673
relative viability (Dovitinib + Dasatinib; first compound 0.06325 µM): 0.548
relative viability (Dovitinib + Dasatinib; first compound 0.2 µM): 0.664
relative viability (Dovitinib + Dasatinib; first compound 0.6325 µM): 0.59
relative viability (Dovitinib + Dasatinib; first compound 2 µM): 0.561
relative viability (Dovitinib + Alpelisib; first compound 0.02 µM): 0.916
relative viability (Dovitinib + Alpelisib; first compound 0.06325 µM): 0.868
relative viability (Dovitinib + Alpelisib; first compound 0.2 µM): 0.915
relative viability (Dovitinib + Alpelisib; first compound 0.6325 µM): 0.848
relative viability (Dovitinib + Alpelisib; first compound 2 µM): 0.939
relative viability (Dovitinib + Bortezomib; first compound 0.02 µM): 1.03
relative viability (Dovitinib + Bortezomib; first compound 0.06325 µM): 1.07
relative viability (Dovitinib + Bortezomib; first compound 0.2 µM): 1.02
relative viability (Dovitinib + Bortezomib; first compound 0.6325 µM): 1.05
relative viability (Dovitinib + Bortezomib; first compound 2 µM): 1.02
relative viability (Dovitinib + Palbociclib; first compound 0.02 µM): 0.738
relative viability (Dovitinib + Palbociclib; first compound 0.06325 µM): 0.708
relative viability (Dovitinib + Palbociclib; first compound 0.2 µM): 0.717
relative viability (Dovitinib + Palbociclib; first compound 0.6325 µM): 0.694
relative viability (Dovitinib + Palbociclib; first compound 2 µM): 0.708

PC-3 [JPC-3]
relative viability (Dovitinib + Dasatinib; first compound 0.02 µM): 1.03
relative viability (Dovitinib + Dasatinib; first compound 0.06325 µM): 0.999
relative viability (Dovitinib + Dasatinib; first compound 0.2 µM): 0.967
relative viability (Dovitinib + Dasatinib; first compound 0.6325 µM): 1
relative viability (Dovitinib + Dasatinib; first compound 2 µM): 0.986
relative viability (Dovitinib + Alpelisib; first compound 0.02 µM): 1.03
relative viability (Dovitinib + Alpelisib; first compound 0.06325 µM): 1.01
relative viability (Dovitinib + Alpelisib; first compound 0.2 µM): 1.02
relative viability (Dovitinib + Alpelisib; first compound 0.6325 µM): 1.09
relative viability (Dovitinib + Alpelisib; first compound 2 µM): 0.909
relative viability (Dovitinib + Bortezomib; first compound 0.02 µM): 0.849
relative viability (Dovitinib + Bortezomib; first compound 0.06325 µM): 0.803
relative viability (Dovitinib + Bortezomib; first compound 0.2 µM): 0.899
relative viability (Dovitinib + Bortezomib; first compound 0.6325 µM): 0.872
relative viability (Dovitinib + Bortezomib; first compound 2 µM): 0.88
relative viability (Dovitinib + Palbociclib; first compound 0.02 µM): 0.518
relative viability (Dovitinib + Palbociclib; first compound 0.06325 µM): 0.58
relative viability (Dovitinib + Palbociclib; first compound 0.2 µM): 0.55
relative viability (Dovitinib + Palbociclib; first compound 0.6325 µM): 0.555
relative viability (Dovitinib + Palbociclib; first compound 2 µM): 0.517

NCI-H1993
relative viability (Dovitinib + Dasatinib; first compound 0.02 µM): 0.748
relative viability (Dovitinib + Dasatinib; first compound 0.06325 µM): 0.634
relative viability (Dovitinib + Dasatinib; first compound 0.2 µM): 0.599
relative viability (Dovitinib + Dasatinib; first compound 0.6325 µM): 0.684
relative viability (Dovitinib + Dasatinib; first compound 2 µM): 0.261
relative viability (Dovitinib + Alpelisib; first compound 0.02 µM): 0.599
relative viability (Dovitinib + Alpelisib; first compound 0.06325 µM): 0.683
relative viability (Dovitinib + Alpelisib; first compound 0.2 µM): 0.642
relative viability (Dovitinib + Alpelisib; first compound 0.6325 µM): 0.71
relative viability (Dovitinib + Alpelisib; first compound 2 µM): 0.734
relative viability (Dovitinib + Bortezomib; first compound 0.02 µM): 1.42
relative viability (Dovitinib + Bortezomib; first compound 0.06325 µM): 1.14
relative viability (Dovitinib + Bortezomib; first compound 0.2 µM): 1.05
relative viability (Dovitinib + Bortezomib; first compound 0.6325 µM): 1.13
relative viability (Dovitinib + Bortezomib; first compound 2 µM): 0.941
relative viability (Dovitinib + Palbociclib; first compound 0.02 µM): 0.856
relative viability (Dovitinib + Palbociclib; first compound 0.06325 µM): 0.721
relative viability (Dovitinib + Palbociclib; first compound 0.2 µM): 0.639
relative viability (Dovitinib + Palbociclib; first compound 0.6325 µM): 0.547
relative viability (Dovitinib + Palbociclib; first compound 2 µM): 0.66

NCI-H1915
relative viability (Dovitinib + Dasatinib; first compound 0.02 µM): 0.317
relative viability (Dovitinib + Dasatinib; first compound 0.06325 µM): 0.308
relative viability (Dovitinib + Dasatinib; first compound 0.2 µM): 0.313
relative viability (Dovitinib + Dasatinib; first compound 0.6325 µM): 0.278
relative viability (Dovitinib + Dasatinib; first compound 2 µM): 0.353
relative viability (Dovitinib + Alpelisib; first compound 0.02 µM): 0.992
relative viability (Dovitinib + Alpelisib; first compound 0.06325 µM): 1.04
relative viability (Dovitinib + Alpelisib; first compound 0.2 µM): 1.06
relative viability (Dovitinib + Alpelisib; first compound 0.6325 µM): 0.983
relative viability (Dovitinib + Alpelisib; first compound 2 µM): 1.04
relative viability (Dovitinib + Bortezomib; first compound 0.02 µM): 0.873
relative viability (Dovitinib + Bortezomib; first compound 0.06325 µM): 0.963
relative viability (Dovitinib + Bortezomib; first compound 0.2 µM): 0.955
relative viability (Dovitinib + Bortezomib; first compound 0.6325 µM): 0.91
relative viability (Dovitinib + Bortezomib; first compound 2 µM): 0.986
relative viability (Dovitinib + Palbociclib; first compound 0.02 µM): 0.512
relative viability (Dovitinib + Palbociclib; first compound 0.06325 µM): 0.533
relative viability (Dovitinib + Palbociclib; first compound 0.2 µM): 0.537
relative viability (Dovitinib + Palbociclib; first compound 0.6325 µM): 0.488
relative viability (Dovitinib + Palbociclib; first compound 2 µM): 0.553

RERF-LC-KJ
relative viability (Dovitinib + Dasatinib; first compound 0.02 µM): 0.842
relative viability (Dovitinib + Dasatinib; first compound 0.06325 µM): 0.842
relative viability (Dovitinib + Dasatinib; first compound 0.2 µM): 0.998
relative viability (Dovitinib + Dasatinib; first compound 0.6325 µM): 0.765
relative viability (Dovitinib + Dasatinib; first compound 2 µM): 0.915
relative viability (Dovitinib + Alpelisib; first compound 0.02 µM): 0.794
relative viability (Dovitinib + Alpelisib; first compound 0.06325 µM): 0.825
relative viability (Dovitinib + Alpelisib; first compound 0.2 µM): 0.852
relative viability (Dovitinib + Alpelisib; first compound 0.6325 µM): 0.822
relative viability (Dovitinib + Alpelisib; first compound 2 µM): 0.87
relative viability (Dovitinib + Bortezomib; first compound 0.02 µM): 1.11
relative viability (Dovitinib + Bortezomib; first compound 0.06325 µM): 1.14
relative viability (Dovitinib + Bortezomib; first compound 0.2 µM): 1.14
relative viability (Dovitinib + Bortezomib; first compound 0.6325 µM): 1.06
relative viability (Dovitinib + Bortezomib; first compound 2 µM): 0.997
relative viability (Dovitinib + Palbociclib; first compound 0.02 µM): 1.09
relative viability (Dovitinib + Palbociclib; first compound 0.06325 µM): 1
relative viability (Dovitinib + Palbociclib; first compound 0.2 µM): 1.08
relative viability (Dovitinib + Palbociclib; first compound 0.6325 µM): 1.1
relative viability (Dovitinib + Palbociclib; first compound 2 µM): 1.01
